In the NIST ThermoML archive (doi:10.1021/je101139k):
Numbers after ± are expanded uncertainties.

Tests used:
[1] = molar heat capacity at constant pressure; settings: 101.33 kPa, Small sample (50 mg) DSC
[2] = Crystal; DTA
[3] = Molar enthalpy of transition or fusion; settings: Crystal; DSC

[Br-].[Br-].[Br-].[Pr+3] [praseodymium(III) bromide]
molar heat capacity at constant pressure [J/K/mol], [1]
Settings	Crystal	Liquid
298.15 K	105.37 ± 7.6	–
300 K	105.39 ± 7.6	–
331 K	105.87 ± 7.6	–
400 K	106.93 ± 7.7	–
500 K	108.46 ± 7.8	–
600 K	109.99 ± 7.9	–
700 K	111.52 ± 8	–
800 K	113.05 ± 8.1	–
900 K	114.58 ± 8.2	–
960 K	115.5 ± 8.3	141.39 ± 10
1000 K	–	141.39 ± 10
1065 K	–	141.39 ± 10
1100 K	–	141.39 ± 10
1191 K	–	141.39 ± 10
1200 K	–	141.39 ± 10
1300 K	–	141.39 ± 10

Settings	Molar enthalpy of transition or fusion [kcal/mol]	Normal melting temperature [°C]
[2]	–	687 ± 1
[3]	11.1 ± 0.359	–
